The values that follow come from patent publication US11963998B2, “Modulation of heparin-binding epidermal growth factor activity for tympanic membrane healing” (The Board of Trustees of the Leland Stanford Junior …, priority 2013, dated 2024).

In assay [1] the test system is acute tympanic perforations in mice. Put plainly: HB-EGF inhibitor applied to acute tympanic membrane perforations (chronic TM perforation model). Format: in vivo. The settings on record: for Perforations open at 2 months / Perforations open at 3 months: mice, OSU8-1 10 mM on gel foam over seven days. As to the method:
EGFR ligand shedding can be inhibited to create a chronic tympanic membrane perforation model. Subtotal perforations were created in the pars tensa of TMs in 20 mice using a curved needle. OSU8.1 (10 mM), a selective HB-EGF inhibitor (see Tokumaru et al. (2000) J. Cell Biol.), was injected onto gel foam (placed through and onto the perforation) over seven days. Mice were sacrificed at time points (Day 2, 7, 14, 30, 44, 60 and 90) to observe the effects on keratinocyte migration. The contralateral ear was used as a control with saline placed onto gel foam. All of these were closed within 2 weeks. Five of seven (71%) of the treatment ears were open at three months. Perforation size was stable over three months (using ImageJ to calculate the perforation area as a percentage of the pars tensa area). A larger cohort was undertaken with 87.9% (n=58) having chronic perforations at 3 months.
100% of HB-EGF inhibitor treated perforations were present at two months compared to 5% of controls and 71% were present at three months compared to 5% of controls

In assay [2] the test system is chronic perforations and ET occlusion in mice. The experiment in a line: HB-EGF treatment of chronic TM perforations with Eustachian tube occlusion. Format: in vivo. On the procedure: HB-EGF heals chronic tympanic membrane perforations with Eustachian tube occlusion. An existing rat model of ET occlusion (see Herda et al. (2002) Laryngoscope 112:1657-62) was adapted to the mouse and has since been performed in 80 live mice with success. The ET occlusion was performed with the chronic perforation model described above. This created a wet sterile discharging perforation at 3 months. This model mimics the human condition of chronic perforation combined with ET dysfunction.
When a cohort of mice with this model (chronic perforations and ET occlusion) were treated with recombinant HB-EGF, 40 μl at a concentration of 5 μg/ml (sustained release dose via a bioabsorbable chitosan polymer) 94% (18 of 19) healed compared to 9% (2 of 23) of controls (polymer only) at 6 weeks (p<0.01). […] The ability to overcome this critical step in TM chronic wound healing using HB-EGF to activate EGFR ectodomain ligand shedding in the presence of middle ear effusions and ET occlusion is useful in treating patients with chronic tympanic membrane perforation.

Assay [3] relates to chronic perforation model with ET occlusion inoculated with Pseudomonas aeruginosa. The experiment in a line: HB-EGF treatment in animal model for chronic suppurative otitis media (CSOM). Format: in vivo, mice. The settings on record: polymer and HB-EGF at 5 μg/ml. The source says: Testing in an animal model for chronic suppurative otitis media. After creating the chronic perforation model with ET occlusion, Pseudomonas aeruginosa (dose of 6×10^9 colony forming units per ml) were inoculated into the middle ear through the existing chronic perforations. At 2 weeks the ear fluid was collected and sent for polymerase chain reaction (PCR) to confirm the presence of bacteria. This positive PCR validated the CSOM model. The mice were then divided into two cohorts. One received polymer only. The other received polymer and HB-EGF at 5 μg/ml (same dose used in above models). 100% of the HB-EGF group healed (16 of 16) compared to 41% (7/17) in the control group (p<0.01). In the control group the healing was also different when it did occur. The TM was often very thin and transluscent compared to a slightly opaque normal TM. […] The ability to still overcome this critical step in TM chronic wound healing using HB-EGF to activate EGFR ectodomain ligand in the closest model to human CSOM validates the method of treatment.

In assay [4] the test system is chronic perforations in mice ears. Put plainly: HB-EGF treatment of chronic tympanic membrane perforations. Format: in vivo. Particulars: 40 μl gel, 5 μg/ml, sustained release chitosan-based polymer; at 4 weeks; p<0.01 vs polymer only. On the procedure: HB-EGF heals chronic tympanic membrane perforations. When a cohort of chronic perforations in mice ears were treated with 40 μl of a gel containing recombinant HB-EGF at a concentration of 5 μg/ml (sustained release dose via a bioabsorbable chitosan-based polymer) 92% (22 of 24) healed, compared to 38% (10 of 26) of controls (polymer only) at 4 weeks (p<0.01). […] This is the first growth factor treatment tested in an animal model of chronic perforation that has shown significant benefit over control.

For `CNC(=O)[C@@H](NC(=O)[C@H](CC(C)C)[C@H](C)C(=O)NO)c1ccccc1` [OSU8-1], the “chronic perforations at 3 months, larger cohort” value in assay [1] (larger cohort, n=58, 3 months) amounted to 87.9%. The “Perforations open at 2 months” value in assay [1] and in assay [1] (listed as HB-EGF inhibitor) was 100% in each case. The “Perforations open at 3 months” value is listed as 71% in assay [1] (3 months); 71% in assay [1] (3 months, listed as HB-EGF inhibitor); 71% in assay [1] (3 months, listed as OSU8.1). For the same molecule, the “Perforation size (perforation area as a percentage of the pars tensa area)” value in assay [1] (over three months, ImageJ) was “stable”.

B1: HB-EGF: recombinant heparin binding epidermal growth factor, delivered in a bioabsorbable chitosan-based polymer gel at 5 μg/ml (protein, UniProt Q99075 63-148, looked up)
Heparin-binding EGF-like …: DLQEADLDLLRVTLSSKPQALATPNKEEHGKRKKKGKGLGKKRDPCLRKYKDFCIHGECKYVKELRAPSCICHPGYHGERCHGLSL
modifications: Heparin-binding EGF-like growth factor in chitosan-based gel
In the case of B1, the “chronic perforations with ET occlusion healed” value in assay [2] (40 μl at 5 μg/ml, sustained release chitosan polymer, at 6 weeks, p<0.01 vs polymer only) worked out at 94%. The “histology of perforation closure” value in assay [2] (chronic perforations and ET occlusion model) was “close with thick layer of keratinocytes”. Also, in assay [3], the “appearance of healing in CSOM model” value is “appeared normal”. In addition, in assay [3] (p<0.01 vs polymer only), the “perforations healed in CSOM model” value was 100%. Further, the chronic perforations healed in assay [4] amounted to 92%.
